Source: paper PMC6152209, “Synthesis, Characterization and In Vitro Evaluation of a Novel Glycol Chitosan-EDTA Conjugate to Inhibit Aminopeptidase-Mediated Degradation of Thymopoietin Oligopeptides” (Molecules : A Journal of Synthetic Chemistry and Natural …, 2017)
Where two headings read alike, the source gives them in different places. Blank lines part the entries; values can stand above or below the compound they belong to. Residues, ends and D or L forms follow the SMILES beside them.

Legend:
[1] = molecular target: T1, leucine aminopeptidase (Sus scrofa, UniProt P15145); experiment: leucine aminopeptidase-mediated degradation of thymopoietin oligopeptides (degradation kinetics and clearance); details: peptide 0.1 mM, LAP 0.01 U/mL, Krebs phosphate buffer pH 7.0, 37 °C, RP-HPLC, Cldeg from ΣM versus AUC, at least three replicates
T1 sequence (P15145 1-963): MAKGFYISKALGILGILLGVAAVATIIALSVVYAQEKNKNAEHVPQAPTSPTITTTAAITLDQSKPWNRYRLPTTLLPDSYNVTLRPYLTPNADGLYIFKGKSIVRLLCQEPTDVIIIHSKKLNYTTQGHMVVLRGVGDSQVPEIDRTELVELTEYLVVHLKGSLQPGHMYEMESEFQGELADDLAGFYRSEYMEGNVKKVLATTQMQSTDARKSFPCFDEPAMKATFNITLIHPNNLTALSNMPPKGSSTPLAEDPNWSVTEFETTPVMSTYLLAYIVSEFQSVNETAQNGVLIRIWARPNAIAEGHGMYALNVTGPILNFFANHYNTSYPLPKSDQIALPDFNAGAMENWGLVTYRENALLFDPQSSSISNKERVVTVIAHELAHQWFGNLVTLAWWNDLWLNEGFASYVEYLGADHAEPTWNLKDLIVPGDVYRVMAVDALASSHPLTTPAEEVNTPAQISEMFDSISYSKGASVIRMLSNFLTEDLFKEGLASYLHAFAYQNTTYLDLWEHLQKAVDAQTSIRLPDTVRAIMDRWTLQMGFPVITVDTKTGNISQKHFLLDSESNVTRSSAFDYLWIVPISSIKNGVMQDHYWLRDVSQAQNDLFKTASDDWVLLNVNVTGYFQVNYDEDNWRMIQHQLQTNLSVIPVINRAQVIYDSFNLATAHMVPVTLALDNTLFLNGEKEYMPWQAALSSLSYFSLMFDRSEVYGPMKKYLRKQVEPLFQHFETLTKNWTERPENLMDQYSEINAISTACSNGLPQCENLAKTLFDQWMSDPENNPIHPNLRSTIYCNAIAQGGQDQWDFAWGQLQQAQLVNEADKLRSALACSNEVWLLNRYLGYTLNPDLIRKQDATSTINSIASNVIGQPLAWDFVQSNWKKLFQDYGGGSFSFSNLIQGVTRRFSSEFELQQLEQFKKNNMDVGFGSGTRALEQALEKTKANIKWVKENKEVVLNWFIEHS
Experimental: (§1) After a 30-min enzymatic activation, the stock solutions of three thymopoietin oligopeptides were added into the above solution and made the final concentration of peptides at 0.1 mM. At specified time intervals after adding peptide, 100 µL aliquots were sampled and diluted with an equal volume of 1 M perchloric acid incubated in an ice bath to stop reaction. Meanwhile, a 100 mL aliquot of the abovementioned buffer was added to the incubation medium. […] All experiments were replicated at least three times.
(§2) Cldeg was determined by linear regression analysis from plots of ΣM versus the AUC at different time points [3, 11].

[2] = cobalt ion chelation-mediated fluorescence recovery of calcein; assay type: physicochemical; details: calcein 0.0625 µg/mL, calcein:cobalt dichloride 1:1 molar, normalized maximum fluorescence emission F/F0, excitation 490 nm
Source text: It is well known that calcein fluorescence can be strongly quenched by cobalt ions at physiological pH, while removal of cobalt ion from the complex by EDTA-mediated chelation will lead to a significant increase in fluorescence intensity. Thus, the chelating capacity of the resultant conjugate can be determined by measuring the cobalt ion-chelating-mediated fluorescence recovery of calcein. […] The excitation wavelength of calcein was set at 490 and its emission was monitored in the range of 500–650 nm. The slits of excitation and emission were set at 5 and 3 nm, respectively. All background effects were subtracted. In addition, the same experiment was done in the presence of EDTA.

[3] = molecular target: T1, leucine aminopeptidase; details: pH 7
Experimental: as §1, §2

order of susceptibility to leucine aminopeptidase (degradation clearance) [1]: TP4 > TP5 > TP3
SMILES: CC(C)[C@H](NC(=O)[C@H](CC(=O)O)NC(=O)[C@H](CCCCN)NC(=O)[C@@H](N)CCCNC(=N)N)C(=O)O [TP4, thymocartin] (H-RKDV-OH)

SMILES: O=C(O)CN(CCN(CC(=O)O)CC(=O)O)CC(=O)O [EDTA, ethylene diamine tetraacetic acid]
EDTA group concentration above which the calcein fluorescence plateau was reached (almost complete removal of cobalt ions from the calcein/cobalt ion complex) [2]: higher than 0.67 µM

order of susceptibility to leucine aminopeptidase (degradation clearance) [3]: TP4 > TP5 > TP3
SMILES: N=C(N)NCCC[C@H](N)C(=O)N[C@@H](CCCCN)C(=O)N[C@@H](CC(=O)O)C(=O)O [TP3, Thymotrinan] (H-Arg-Lys-Asp-OH)
